The values that follow come from patent publication US8227616B2, “Cyanopyridine antibacterial agents and methods of use thereof” (Wisconsin Alumni Research Foundation, priority 2006, dated 2012).

≈ marks a conversion by molar mass, not a printed value. Like-named read-outs stand apart in the source and are kept apart here.

For experiment [1], the system named is S. aureus ATCC 10390. The experiment can be described thus: Kirby-Bauer disk diffusion assay on compound spots from cleaved macroarray. It counts as cell-based, Staphylococcus aureus. The conditions noted are these: loadings 30 μg/spot, 18 h incubation. On the procedure:
While the heterocyclic libraries were being synthesized, the chalcone macroarrays were analyzed using various direct assay techniques such as the Kirby-Bauer disk diffusion assay (FIG. 2E). Bauer, A. W.; Kirby, […].; Turck, M. Technical Bulletin of the Registry of Medical Technologists 1966, 36, 49-52. For this assay, the macroarray members are punched out from the membrane, cleaved from the support with TFA vapor, neutralized with ammonia vapor, and then placed on an agar bed inoculated with S. aureus. After incubating overnight, different diameters of zones of inhibition are measured as a factor of potency as well as solubility in the medium. Ammonia vapor neutralization was key in the disk diffusion assay, otherwise residual TFA vapor created a false positive signature. However, in this method, macroarrays have to be made in triplicate one for a replicate and one for compound characterization. We first evaluated test chalcone macroarrays (3) in antibacterial assays against S. aureus. Because the macroarrays were prepared on cellulose filter paper, we had convenient access to the compounds in disk form for standard disk diffusion assays. Compound spots were punched out of the macroarrays, subjected to vapor phase cleavage with acid (TFA), and neutralized (NH3) to afford disks containing ca. 30 μg of adsorbed compound [8]. These disks were manually placed on lawns of S. aureus, and zones of inhibition were measured after an 18 h incubation period. […] However, this antibacterial assay format had drawbacks: (1) the entire sample of compound was consumed during the assay, and thus replicate arrays needed to be synthesized to confirm activity, and (2) manipulating large numbers of compound disks was relatively labor intensive. Compound spots were cleaved with TFA and neutralized with NH3 as described herein. […] Compound spots were placed onto the agar, the plate was incubated at 37° C. for 18 h, and the diameters of the zones of inhibition were measured. […] Compound spots were subjected to the TFA cleavage conditions described above. The spots were next subjected to NH3 vapor to neutralize any remaining TFA. […] Vials containing the spots (or intact macroarrays) were placed inside a small evaporating dish, and this was placed into the NH4OH solution. The Pyrex dish was covered, and NH3 vapor was allowed to slowly diffuse into the vials. After 1 h, the vials were removed from the NH3 chamber, and the spots were allowed to stand open in a fume hood for at least 15 min to vent prior to analysis in the following assays. This afforded dry, paper disks containing adsorbed compound. […] The plates were removed, and the diameters of the zones of inhibition were measured in mm using a ruler (see FIG. 1A).
For orientation: In agar diffusion tests the substance spreads into inoculated agar from a disc or well.

The subject of experiment [2] is S. aureus ATCC 10390. The experiment can be described thus: Estimated MIC, solution-phase microdilution absorbance assay with crude macroarray spot stock solutions. The conditions noted are these: for MIC: Staphylococcus aureus, ATCC10390, 12 h. Type of experiment: cell-based, Staphylococcus aureus. Here is the method:
Spots from a new 69 member chalcone macroarray as well as the three heterocyclic macroarrays prepared earlier were punched out, cleaved, and eluted with acetonitrile. The resulting solutions were concentrated to a residue that was taken up in DMSO to form 2 mM stock solutions.
From the stock solutions, microdilution assays in a 96 well plate starting at 50 μM were performed in quadruplicate. Each well contained 5 μL of the stock solution as well as 195 μL of a S. aureus culture. The turbidity of each well was measured after incubating 12 hours using a standard plate reader. Active compounds can be further diluted and the assay repeated.
To acquire more quantitative antibacterial activity data about our compounds and verify our on-support assay results, we performed solution-phase absorbance assays that provided estimates of the minimum inhibitory concentration (MIC) of each macroarray member against S. aureus. Stock solutions (ca. 2 mM) were generated by cleaving and eluting 198 individual compounds from chalcone (3) and heterocyclic macroarrays (5, 7, and 8). […] The good overall purities of the crude macroarray compounds allowed for reasonable estimations of MICs.
(§1) For estimated MIC determination, DMSO was added to the dried compound residue obtained from a single spot to afford ca. 100 μL of a 2 mM stock solution. Aliquots (5 μL) of these solutions were added to a 96-well plate, followed by 195 μL of diluted S. aureus 10390 (10^6 CFUs/mL) to yield ca. 50 μM final concentrations. The plates were swirled for 1 h to ensure compound dissolution, incubated for 12 h at 37° C., and the absorbance at 595 nm was recorded using a plate reader. […] Actual MIC values were determined for lead compounds resynthesized in solution using an analogous procedure with solutions of known concentration (see).
Preparation of spot samples and controls. An aliquot of DMSO (ca. 100 μL depending on the loading of the parent hydroxyacetophenone) was added to the dried compound residue obtained after TFA cleavage and elution from a single spot. This afforded a 2.0 mM “spot stock” solution for each spot. A small aliquot of each “spot stock” solution was saved for subsequent LC-MS analysis.
For estimated MIC screens, 5.0 μL portions of the “spot stock” solutions were added to the appropriate wells in a sterile, polystyrene 96-well plate to yield ca. 50 μM solutions (dependent on the initial loading of hydroxyacetopheneone and compound purity). To the positive and negative control wells, 5.0 μL of DMSO were added (positive controls contained bacteria but no compound, while negative controls had neither compound nor bacteria). All estimated MIC assays were performed in quadruplicate. Note: the MIC value is defined as the lowest concentration where no bacterial growth occurs.
Representative estimated MIC assay procedure. This assay procedure is based in part on the method reported by Strøm et al.^xiii A 400 μL portion of overnight S. aureus 10390 culture was diluted with 100 mL of sterile LB broth to give ca. 10^6 CFUs per mL. Aliquots (195 μL) of this solution were added to all of the wells in a sterile 96-well plate (except for the negative control wells; 195 μL of sterile LB broth were added to these wells). The plates were placed on an orbital shaker table and gently swirled for 1 h to ensure compound dissolution, and then incubated (without shaking) for 12 h at 37° C. The absorbance at 595 nm was recorded using a plate reader.
The original “spot stock” solutions of these compounds were diluted with DMSO to give ca. 25 and 13 μM final concentrations and tested for inhibitory activities using the procedure described above.

Experiment [3] relates to Methicillin-resistant S. aureus ATCC 33591 (MRSA). The experiment in a line: MIC determination with authentic compounds resynthesized in solution. It counts as cell-based. Conditions: Staphylococcus aureus; Table 3; authentic sample, only trans isomers of chalcones; error reflects step size in the serial dilutions. Here is the method: as §1
Dose response growth inhibition curves were determined for each active compound (resynthesized in solution) against S. aureus 10390 (SA) and methicillin-resistant S. aureus 33591 (MRSA). […] MIC assays were performed in quadruplicate.

With `O=C(/C=C/c1cc(C(F)(F)F)cc(C(F)(F)F)c1)c1cccc(O)c1` [Compound 4Bv, 3′-hydroxy-3,5-bis(trifluoromethyl)chalcone], in the experiment with S. aureus ATCC 10390 [1], the Zones of inhibition turned out to be 22 mm. In the experiment on S. aureus ATCC 10390 [2] (12.5 μM, macroarray stock solutions diluted four fold), the “inhibition of S. aureus at the 12.5 μM level” value is given as “complete inhibition”. Besides, the MIC (commonly the least concentration at which growth counts as inhibited) was 6.25 to 12.5 µM (≈ 2.25 to 4.5 µg/mL) in the experiment on S. aureus ATCC 10390 [2] (Table 2, serial dilution of stock solutions obtained by SPOT-synthesis, read-out: estimated MIC range); less than 12.5 µM with S. aureus ATCC 10390 [2] (Table 3, serial dilution of spot stock solutions of crude macroarray compounds, read-out: S. aureus Estimated MIC range); 3 ± 0.5 µM (≈ 1.08 µg/mL) in experiment [3].
